The target in one test is T1, msADRA1a (Mus musculus, UniProt P97718).
T1 construct: expressed in transfected cells; host or cells: HEK293T
Put plainly: NanoBit complementation assay of mini-Gq recruitment. It is filed as cell-based. The method, then:
To measure the effect of DETQ on mini-G protein recruitment by different GPCRs we used a Nanoluciferase (NanoBit)-based complementation assay[26],[27]. For this HEK293T cells were seeded in six-well plates (Techno Plastic Products) at a density of 300,000 cells per well and co-transfected with plasmids encoding either hmDRD1, msDRD1, msDRD2, msDRD5, msADRA1a, msβ2AR or ms5HT6 carrying a C-terminally fused SmBiT, in combination with the corresponding mini-G protein probe[78] (mini-Gs: for DRD1, DRD5, β2AR, 5HT6R; mini-Gq: for ADRA1a; or mini-Gi: for DRD2), which were N-terminally fused to LgBiT, in a 1:1 DNA ratio using Effectene transfection reagent (Qiagen). […] The plate was incubated at 37 °C for 30 min, before the luminescence signal was measured at 37 °C using a Tecan Spark plate reader before and after the manual addition of 25 µl of either ligand solution (final concentrations ranging from 1 nM to 100 µM), pure Fluorobrite-DMEM or 25 µl of a DETQ solution (1 µM final concentration).
For in vitro luminescence assays, ligand traces were divided by buffer traces, the area under the curve for each trace was calculated using GraphPad Prism, values were normalized and fitted as dose response curve. […] The statistical significance was determined using Welch’s ANOVA followed by Dunnett’s multiple comparison test (comparison of ligand or vehicle to ligand). […]

The test system of the next test is AlloLite-ctr. Put plainly: In vivo photometry of AlloLite-ctr in NAc. Also noted: species or system mouse. The following applies: DETQ 10 mg/kg. As for the experimental part: Fiber photometry combined with optogenetics was conducted using a RZ10X LUX-I/O Processor with integrated LEDs (Tucker-Davis Technologies) combined with a filter/mirror minicube set (FMC6_IE(400-410)_E1(467-497)_F1(507-554)_E2(566-586)_F2(600-680)_S) (Doric Lenses). […] Low-autofluorescence patch cords (400 µm/0.57 NA, Doric) were attached to the optic fibers (400 µm/0.66 NA, Doric) on the mouse’s head to collect fluorescence emissions. Signals were filtered through 500–540 nm GFP emission filters coupled to a photodetector on the RZ10X. […] Data were sampled at 1017.3 Hz. […] For optogenetic stimulation, a 635 nm LED was passed through the 580–680 nm minicube F2 port and reached the mouse through the same unique optic fiber; the LED was driven at 1 to 3 mW. To determine the ‘temporal window for stable imaging’ in the PFC using dLight1.3b recordings, DAT^IREScre mice expressing ChrimsonR in VTA DA axons and dLight1.3b in the PFC were injected i.p. with vehicle at 0 min, followed by DETQ (10 mg/kg) 25 min later. […] DA release was measured with fiber photometry. […] After each injection, NAc DA axons were optically (opto) activated across 3 trials (2 s, 20 Hz, 20-ms pulses) every 5 min and DA released measured with fiber photometry. […] After each injection, NAc DA axons were optically (opto) inhibited (10 s, continuous trials) every 3 min (8 trials/condition) and DA released measured with fiber photometry. […] DA release was measured with fiber photometry.
For long-term recordings during optogenetic stimulation or chemogenetic inhibition linear fit was calculated across the entire recording or across the vehicle epoch; for event-related experiments fit was performed on fluorescent data obtained in the −60 to +60 s around opto events or −5 to −1 s around behavioral events. […] DA event-related responses were quantified by computing the value at the transient’s peak value and the AUC in the 0 to 10 s or 0 to 60 s period post-event onset. […]

T1 sequence (P97718 whole entry): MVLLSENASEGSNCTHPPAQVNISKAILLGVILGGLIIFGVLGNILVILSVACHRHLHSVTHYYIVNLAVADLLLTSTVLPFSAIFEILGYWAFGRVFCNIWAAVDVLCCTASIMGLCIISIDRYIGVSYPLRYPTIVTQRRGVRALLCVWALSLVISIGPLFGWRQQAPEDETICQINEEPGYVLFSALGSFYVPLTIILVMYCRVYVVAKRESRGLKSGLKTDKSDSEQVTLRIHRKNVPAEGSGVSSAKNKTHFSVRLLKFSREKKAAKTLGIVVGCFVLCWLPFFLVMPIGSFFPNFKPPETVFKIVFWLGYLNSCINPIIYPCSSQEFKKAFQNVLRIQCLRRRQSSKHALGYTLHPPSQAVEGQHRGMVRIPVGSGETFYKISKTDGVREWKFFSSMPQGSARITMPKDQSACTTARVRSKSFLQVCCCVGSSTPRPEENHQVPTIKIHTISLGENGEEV

Regarding `C[C@H]1c2cccc(C(C)(C)O)c2C[C@H](CO)N1C(=O)Cc1c(Cl)cccc1Cl` [DETQ, 2-(2,6-dichlorophenyl)-1-((1S,3R)-3-(hydroxymethyl)-5-(2-hydroxypropan-2-yl)-1-methyl-3,4-dihydroisoquinolin-2(1H)-yl)ethan-1-one], on msADRA1a (DETQ 1 µM alone), the “agonist mode: direct agonist effect” value is on record as “no direct agonist effect”. Moreover, the “allosteric modulator mode: effect on agonist dose-response” value at msADRA1a (DETQ 1 µM, NE) was “No allosteric effect”. In addition, in the test with AlloLite-ctr, the “increase in baseline signal after DETQ administration” value is reported as “completely absent”; the “opto-evoked DA peaks of AlloLite-ctr upon DETQ” value was “retained the same amplitude and kinetics”.

These data come from paper PMC11219860, “A chemogenetic approach for dopamine imaging with tunable sensitivity” (Nature Communications, 2024).
